In PubChem BioAssay AID743159 (Broad Institute, 2013):
Values joined by “and” are separate entries in the source; they are usually repeats but may differ in a detail not shown here. Equal values may be shown once. Active and inactive are the calls of the source.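 Rule for the calls: active = fitted curve reaches a 40% rise in lysis activity at or below the top valid tested dose; inconclusive = flat curve holding a 30 to 70% rise, or poor fit; inactive = signal moving opposite to the expected rise, and the rest.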

Tests used:
[1] = tested on: Cryptococcus neoformans lysis, adenylate kinase release luminescence, 4 h; assay: fungal lysis via adenylate kinase leakage – AK release luminescence, dry powder, dose response (AID 743159)
[2] = as above; settings: Cryptococcus neoformans lysis, adenylate kinase release luminescence, 4 h; at 15 µM (top of the series)

Compound | AC40 [1] | lysis activity increase [2]
CCOC(=O)c1c(-c2ccc(-c3ccccc3)cc2)csc1NC(=O)CNCCN(C)C | 6640 nM | –
COC(=O)C1=C(C)N(Cc2ccc(F)cc2)C(=S)NC1c1cccc(F)c1 (stereo not given) | 2300 nM | –
COC(=O)C1=C(C)N(Cc2ccc(Br)cc2)C(=S)NC1c1ccc(OC)cc1 (stereo not given) | 925 nM | –
CCOC(=O)c1c(-c2ccc(C(C)(C)C)cc2)csc1NC(=O)CN1CCN(C)CC1 | 6330 nM | –
Cc1ccc(OCCn2c(=S)[nH]c3ccccc32)cc1 | 703 nM | –
S=c1[nH]c2ccccc2n1CCOc1ccc(Cl)cc1 | 270 nM | –
Cc1ccc(C(C)C)c(OCCn2c(=S)[nH]c3ccccc32)c1 | 232 nM | –
CCOc1ccc(OCCn2c(=S)[nH]c3ccccc32)cc1 | 880 nM | –
O=c1[nH]c2ccccc2n1CCOc1ccccc1 | – | -3.24% (inactive) and 10.6% (inactive)
CCOC(=O)c1c(-c2ccc(OC)cc2)csc1NC(=O)CN(C)CC(=O)N(C)C | – | -2.9% (inactive)
Cc1ccccc1OCCn1c(=S)[nH]c2ccccc21 | 596 nM | –
Cc1ccc(OCCn2c(SCCO)nc3ccccc32)c(C(C)C)c1 | – | 18.7% (inactive)
Cc1ccc2c(c1)[nH]c(=S)n2CCOc1ccccc1 | 211 nM | –
COC(=O)C1=C(C)N(Cc2ccc(Br)cc2)C(=S)NC1c1ccc(F)cc1 (stereo not given) | 681 nM | –
CCOC(=O)c1c(-c2ccc(F)cc2)csc1NC(=O)CN1CCN(C)CC1 | > 15000 nM (inactive) | –
c1ccc(OCCn2cnc3ccccc32)cc1 | > 15000 nM (inactive) | –
COC(=O)C1=C(C)N(Cc2ccccc2)C(=S)NC1c1ccc(Br)cc1 (stereo not given) | 1810 nM | –
Cc1ccc(OCCn2cnc3ccccc32)cc1 | 2860 nM | –
Fc1ccccc1OCCn1c(=S)[nH]c2ccccc21 | 1770 nM | –
COC(=O)C1=C(C)N(Cc2ccc(Cl)cc2)C(=S)NC1c1ccc(Br)cc1 (stereo not given) | 454 nM | –
Cc1cccc(OCCn2c(=S)[nH]c3cc(C(F)(F)F)ccc32)c1 | 352 nM | –
CCOC(=O)c1c(NC(=O)CN2CCN(C)CC2)sc(C)c1-c1ccc(C)cc1 | – | -2.55% (inactive)
S=c1[nH]c2cccc(Cl)c2n1CCOc1ccccc1 | 851 nM | –
Fc1cccc2c1[nH]c(=S)n2CCOc1ccccc1 | 1500 nM | –
S=c1[nH]c2ccccc2n1CCOc1ccccc1 | 1630 nM | –
CCOC(=O)c1c(NC(=O)CNCCN(C)C)sc(C)c1-c1ccccc1 | – | 16.9% (inactive)
CCOC(=O)c1c(-c2ccc(F)cc2)csc1NC(=O)CN1CCN(CC)CC1 | – | 20.2% (inactive)
Cc1ccc(OCCn2c(=S)[nH]c3ccccc32)c(C(C)C)c1 | 334 nM and 155 nM | –
CCOC(=O)c1c(-c2ccc(C(C)(C)C)cc2)csc1NC(=O)CN1CCN(CC)CC1 | 6310 nM | –
Cc1ccc(OCCn2c(C)nc3ccccc32)cc1 | 1480 nM | –
